Calls of active or inactive are those of the source. The calls are words filed in the database; no cut-off is given here.

Broadly, the inhibition is the drop in the measured response relative to a control, in per cent.

Assay [1] relates to B16-F10. Kind of assay: Inhibition of SNP-induced NO production in mouse B16F10 cells at 16 uM incubated 1 hr prior to SNP challenge measured after 48 hrs by Griess assay (reference value: 237.84 +/- 4.12%); values are per cent of control. For orientation: The Griess reaction detects nitrite, a stable product of nitric oxide.
Assay [2] relates to B16-F10. Kind of assay: Antimelanogenic activity in mouse B16F10 cells assessed as reduction in SNP-induced phosphorylated CREB level at 16 uM by Western blotting analysis. It counts as functional, cell-based.
The test system of assay [3] is B16-F10. Description: Inhibition of SNP-induced NO production in mouse B16F10 cells assessed as decrease of intracellular cGMP level at 16 uM incubated for 1 hr prior to SNP challenge measured after 30 mins by EIA relative to control. It is filed as functional. The following applies: values are per cent of control.
Assay [4] addresses T1, Tyrosinase (Mus musculus) (UniProt P11344).
T1 sequence (whole entry): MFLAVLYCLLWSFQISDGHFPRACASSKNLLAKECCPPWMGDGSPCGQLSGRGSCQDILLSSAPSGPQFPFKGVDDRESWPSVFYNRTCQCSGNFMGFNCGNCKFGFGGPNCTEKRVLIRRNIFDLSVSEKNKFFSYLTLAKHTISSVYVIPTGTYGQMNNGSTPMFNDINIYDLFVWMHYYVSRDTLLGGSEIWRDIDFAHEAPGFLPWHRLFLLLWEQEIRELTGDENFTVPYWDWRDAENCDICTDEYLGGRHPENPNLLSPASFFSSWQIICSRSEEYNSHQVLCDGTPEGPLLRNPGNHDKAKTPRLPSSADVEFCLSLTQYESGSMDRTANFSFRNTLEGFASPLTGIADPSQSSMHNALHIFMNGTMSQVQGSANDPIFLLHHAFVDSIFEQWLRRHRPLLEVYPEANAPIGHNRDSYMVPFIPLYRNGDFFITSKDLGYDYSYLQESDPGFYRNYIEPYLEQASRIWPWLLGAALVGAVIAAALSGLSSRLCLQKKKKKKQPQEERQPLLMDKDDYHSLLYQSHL
Kind of assay: Inhibition of tyrosinase in mouse B16F10 cells at 30 uM incubated for 1 hr prior to SNP challenge measured after 48 hrs (reference value: 198.83 +/- 11.46%). It is filed as cell-based. The following applies: B16-F10.

The subject of assay [5] is B16-F10. Description: Antimelanogenic activity in mouse B16F10 cells assessed as reduction of SNP-induced melanin level at 16 uM incubated for 1 hr prior to SNP challenge measured after 48 hrs (reference value: 282.59 +/- 47.06%). It is filed as functional.
Assay [6] has as its system B16-F10. Description: Antimelanogenic activity in mouse B16F10 cells assessed as reduction of SNP-induced melanin level incubated for 1 hr prior to SNP challenge measured after 48 hrs. It counts as functional, cell-based.
In assay [7] the test system is B16-F10. Kind of assay: Inhibition of SNP-induced NO production in mouse B16F10 cells incubated 1 hr prior to SNP challenge measured after 48 hrs by Griess assay. It is filed as functional, cell-based.
Assay [8] has as its system B16-F10. Description: Inhibition of SNP-induced NO production in mouse B16F10 cells at 4 uM incubated 1 hr prior to SNP challenge measured after 48 hrs by Griess assay (reference value: 237.84 +/- 4.12%); values are per cent of control.
Assay [9] concerns B16-F10. Kind of assay: Antimelanogenic activity in mouse B16F10 cells assessed as reduction in SNP-induced tyrosinase protein level by Western blotting analysis. It counts as functional, cell-based. A general note: Immunoblotting shows a protein as a band on a membrane.
Assay [10] addresses T1, Tyrosinase (Mus musculus). Description: Inhibition of tyrosinase in SNP-stimulated mouse B16F10 cells at 16 uM incubated for 1 hr prior to SNP challenge measured after 48 hrs (reference value: 198.83 +/- 11.46%). It is filed as cell-based. The conditions noted are these: B16-F10, values are per cent of control.
The subject of assay [11] is B16-F10. Kind of assay: Inhibition of SNP-induced NO production in mouse B16F10 cells assessed as decrease of intracellular cGMP level at 4 uM incubated for 1 hr prior to SNP challenge measured after 30 mins by EIA relative to control. It counts as functional. The conditions noted are these: values are per cent of control.
The target in assay [12] is T1, Tyrosinase (Mus musculus). Kind of assay: Inhibition of tyrosinase in SNP-stimulated mouse B16F10 cells at 4 uM incubated for 1 hr prior to SNP challenge measured after 48 hrs (reference value: 198.83 +/- 11.46%). It counts as cell-based. The conditions noted are these: B16-F10, values are per cent of control.
The target of assay [13] is T1, Tyrosinase (Mus musculus). Description: Inhibition of tyrosinase in SNP-stimulated mouse B16F10 cells at 0.5 uM incubated for 1 hr prior to SNP challenge measured after 48 hrs (reference value: 198.83 +/- 11.46%). The conditions noted are these: B16-F10, values are per cent of control. It counts as cell-based.
Assay [14] relates to B16-F10. Kind of assay: Inhibition of SNP-induced NO production in mouse B16F10 cells assessed as decrease of intracellular cGMP level at 0.5 uM incubated for 1 hr prior to SNP challenge measured after 30 mins by EIA relative to control. It counts as functional. The following applies: values are per cent of control.
In assay [15] the test system is B16-F10. Description: Antimelanogenic activity in mouse B16F10 cells assessed as reduction of SNP-induced melanin level at 0.5 uM incubated for 1 hr prior to SNP challenge measured after 48 hrs (reference value: 282.59 +/- 47.06%). It counts as functional.
Assay [16] deals with B16-F10. Description: Inhibition of SNP-induced NO production in mouse B16F10 cells at 0.5 uM incubated 1 hr prior to SNP challenge measured after 48 hrs by Griess assay (reference value: 237.84 +/- 4.12%); values are per cent of control.
Assay [17] concerns B16-F10. Description: Antimelanogenic activity in mouse B16F10 cells assessed as reduction in SNP-induced phosphorylated CREB level at 0.5 to 4 uM by Western blotting analysis. It is filed as functional, cell-based.
Assay [18] concerns B16-F10. Description: Antimelanogenic activity in mouse B16F10 cells assessed as reduction of SNP-induced melanin level at 4 uM incubated for 1 hr prior to SNP challenge measured after 48 hrs (reference value: 282.59 +/- 47.06%). It is filed as functional.
Assay [19] relates to B16-F10. Kind of assay: Antimelanogenic activity in mouse B16F10 cells assessed as reduction in SNP-induced nuclear MITF level by Western blotting analysis. It is filed as functional, cell-based.
Assay [20] deals with B16-F10. Kind of assay: Inhibition of SNP-induced NO production in mouse B16F10 cells assessed as decrease of intracellular cGMP level incubated for 1 hr prior to SNP challenge measured after 30 mins by EIA relative to control. It is filed as functional, cell-based.

As for `CC1(C)N([O])C(c2ccc(C(=O)O)cc2)=[N+]([O-])C1(C)C`, the results for the level, % of control at 16 µM in [1] and in assay [5] were 206% and 173%, respectively. Besides, in assay [2], the inhibition result was “Active”. Moreover, in [3], the response, % of control at 16 µM was 153%. Also, the inhibition in assay [4] turned out to be 34.3%.
In the case of `O=C1NC(=O)/C(=C/c2ccc(O)cc2O)S1`, the level, % of control at 16 µM amounted to 172% in assay [1] and 100% in assay [5]. In addition, the inhibition result in assay [6], in [7], in assay [9], in assay [19] and in assay [20] was “Dose-dependent effect” each time. Also, in [2], the inhibition result is “Active”. The level, % of control at 4 µM amounted to 183% in [8] and 114% in [18]. For the same molecule, the residual activity in [10] was determined as 31.8%; in assay [12], 60.5%; in assay [13] it was 84.8%. The response, % of control at 16 µM in assay [3] was determined as 83.1%. Further, the response, % of control at 4 µM in assay [11] is 154%. In addition, the response, % of control at 0.5 µM in assay [14] stood at 177%. Moreover, the level, % of control at 0.5 µM came out at 151% in [15] and 200% in [16]. The inhibition entry in assay [17] was “inactive”.
